The source of these data is patent publication US9303015B2, “Heteroaryl linked quinolinyl modulators of RORγt” (Janssen Pharmaceutica NV, priority 2012, dated 2016).

Counter-ions that a name gives are not always drawn. Some results are limits rather than exact numbers.

One experiment addresses human RORγt LBD (Homo sapiens (Human), UniProt P51449). The experiment in a line: RORγt reporter assay (GAL4-RORγt LBD luciferase, HEK293T cells). Conditions: for inhibition at 6 µM: HEK-293T, read-out: RORγt reporter Assay, % inhibition @ 6 μM, 6 μM, HEK293T cells. In kind it is cell-based. An excerpt: A reporter assay was used to test functional activity of RORγt modulatory compounds on transcriptional activation driven by the RORγt LBD. Cells used in the assay were co-transfected with two constructs. The first construct, pBIND-RORγt LBD, contained the wild type human RORγt LBD fused to the DNA binding domain of the GAL4 protein. The second construct, pGL4.31 (Promega Cat no. C935A), contained multiple GAL4 responsive DNA elements upstream of firefly luciferase. […] The mutant construct was called pBIND-RORγt-AF2. […] The pBIND vector contains the GAL4 DNA Binding Domain (GAL4 DBD) and the renilla luciferase gene under control of the SV40 promoter. Renilla luciferase expression serves as a control for transfection efficiency and cell viability.
The reporter assay was performed by transiently transfecting HEK293T cells with 5 μg of pBIND-RORγt LBD or pBIND-RORγt LBD-AF2 and 5 μg pGL4.31 (Promega Cat no. C935A) using Fugene 6 (Invitrogen Cat no. E2691) at a 1:6 ratio of DNA: Fugene 6 in a T-75 flask in which cells were at least 80% confluent. Twenty four hours after bulk transfection, cells were plated into 96-well plates at 50,000 cells/well in phenol-red free DMEM containing 5% Lipid Reduced FCS and Pen/Strep. Six hours after plating, cells were treated with compounds for 24 hours. Media was removed and cells were lysed with 50 μL 1x Glo Lysis Buffer (Promega). Dual Glo Luciferase Reagent (50 μL/well) was then added and firefly luciferase luminescence was read on an Envision after a ten minute incubation. Finally, Stop and Glo reagent (50 μL/well) was added and renilla luciferase luminescence was read on an Envision after a ten minute incubation. To calculate the effect of compounds on RORγt activity, the ratio of firefly to renilla luciferase was determined and plotted against compound concentration. Agonist compounds increase RORγt-driven luciferase expression, and antagonist or inverse agonist compounds decrease luciferase expression.
Background: Reporter assays use an easily measured gene product as a stand-in for the process of interest.

In experiment [1] the test system is IL-17 production by CD4 T cells. Put plainly: Human Th17 assay. It counts as cell-based. The note with it: IL-17 in supernatant after 3 days, human CD4+ T cells under Th17 differentiation. The source says:
The human Th17 assay tests the effect of RORγt modulatory compounds on IL-17 production by CD4 T cells under conditions which favor Th17 differentiation.
Total CD4^+ T cells were isolated from the peripheral blood mononuclear cells (PBMC) of healthy donors using a CD4^+ T cell isolation kit II, following the manufacturer's instructions (Miltenyi Biotec). Cells were resuspended in a medium of RPMI-1640 supplemented with 10% fetal bovine serum, penicillin, streptomycin, glutamate, and β-mercaptoethanol and were added to 96-well plates at 1.5×10^5 per 100 μL per well. 50 μL of compound at titrated concentrations in DMSO were added into each well at final DMSO concentration at 0.2%. Cells were incubated for 1 hour, then 50 μL of Th17 cell differentiation medium was added to each well. The final concentrations of antibodies and cytokines (R&D Systems) in differentiation medium were: 3×10^6/mL anti-CD3/CD28 beads (prepared using human T cell activation/expansion kit, Miltenyi Biotec), 10 μg/mL anti-IL4, 10 μg/mL anti-IFNγ, 10 ng/mL IL113, 10 ng/mL IL23, 50 ng/mL IL6, 3 ng/mL TGFβ and 20 U/mL IL2. Cells were cultured at 37° C. and 5% CO2 for 3 days. Supernatants were collected and the accumulated IL-17 in culture was measured by using MULTI-SPOT® Cytokine Plate following manufacture's instruction (Meso Scale Discovery). The plate was read using Sector Imager 6000, and IL-17 concentration was extrapolated from the standard curve. The IC50s were determined by GraphPad.

human RORγt LBD, sequence (P51449 258-518): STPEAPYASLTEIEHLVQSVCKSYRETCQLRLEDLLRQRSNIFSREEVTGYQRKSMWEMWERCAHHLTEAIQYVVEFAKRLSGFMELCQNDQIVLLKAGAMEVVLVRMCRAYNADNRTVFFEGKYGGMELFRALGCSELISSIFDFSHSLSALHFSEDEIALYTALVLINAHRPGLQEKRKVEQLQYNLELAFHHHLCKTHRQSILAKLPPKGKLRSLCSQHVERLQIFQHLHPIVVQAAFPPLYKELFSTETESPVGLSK

In general, IC50 refers to the midpoint of a concentration-inhibition curve. A higher IC50 goes with weaker potency in that assay. For `CCOc1nc2ccc(C(O)(c3ccc(Cl)cc3)c3cncn3C)cc2c(Cl)c1Oc1ccccc1` (single isomer, unassigned) [Example 2a, (4-Chloro-2-ethoxy-3-phenoxyquinolin-6-yl)(4-chlorophenyl)(1-methyl-1H-imidazol-5-yl)methanol.TFA], at human RORγt LBD (HEK293T cells), the “RORγt reporter Assay, % inhibition @ 6 μM” value worked out at 88%. The half-maximal inhibitory concentration (IC50) in experiment [1] came to 0.61 µM.

For orientation: inhibition means the relative decrease from the control value, in per cent. `CCOc1nc2ccc(C(O)(c3ccc(Cl)cc3)c3cncn3C)cc2c(Cl)c1Oc1ccccc1` (single isomer, unassigned) [Example 2b]: the inhibition at 6 µM at human RORγt LBD was determined as 92%. For the same molecule, in experiment [1], the IC50 came to 0.66 µM.

Turning to `CCOc1nc2ccc(C(O)(c3ccc(Cl)cc3)c3cncn3C)cc2c(Cl)c1Oc1ccccc1` (single isomer, unassigned) [Example 2c], on human RORγt LBD (HEK293T cells), the “RORγt reporter Assay, % inhibition @ 6 μM” value was 92%. It took 0.21 µM to reach half-maximal inhibition in experiment [1] (IC50).

For the molecule `CCN(CC)c1nc2ccc(C(O)(c3ccc(Cl)cc3)c3cncn3C)cc2c(Cl)c1Oc1ccccc1` (single isomer, unassigned) [Example 3c, (4-Chloro-2-(diethylamino)-3-phenoxyquinolin-6-yl)(4-chlorophenyl)(1-methyl-1H-imidazol-5-yl)methanol], the “RORγt reporter Assay, % inhibition @ 6 μM” value on human RORγt LBD (HEK293T cells) stood at 104%. This molecule also returned a concentration for half-maximal inhibition (IC50) in experiment [1] (Homo sapiens, CD4+ T, 72 h) of 0.12 µM.

As for `CCN(CC)c1nc2ccc(C(O)(c3ccc(OC)nc3)c3cncn3C)cc2c(Cl)c1Oc1ccccc1` (single isomer, unassigned) [Example 5b, (4-Chloro-2-(diethylamino)-3-phenoxyquinolin-6-yl)(6-methoxypyridin-3-yl)(1-methyl-1H-imidazol-5-yl)methanol], at human RORγt LBD, the inhibition at 6 µM was 98%. Also, the midpoint of inhibition in experiment [1] (Homo sapiens, CD4+ T, 72 h), the IC50, lay at 0.085 µM.

With `CCN(CC)c1nc2ccc(C(O)(c3ccc(OC)nc3)c3cncn3C)cc2c(Cl)c1Oc1ccccc1` (single isomer, unassigned) [Example 5c, (4-Chloro-2-(diethylamino)-3-phenoxyquinolin-6-yl)(6-methoxypyridin-3-yl)(1-methyl-1H-imidazol-5-yl)methanol], the “RORγt reporter Assay, % inhibition @ 6 μM” value on human RORγt LBD (HEK293T cells) is reported as 104%. In experiment [1], this molecule showed an IC50 of 0.11 µM.

On to `Cn1cncc1C(O)(c1ccc(C(F)(F)F)nc1)c1ccc2nc(N3CCC3)c(Oc3ccc(C#N)cc3)c(Cl)c2c1` (single isomer, unassigned) [Example 31b, 4-((2-(Azetidin-1-yl)-4-chloro-6-(hydroxy(1-methyl-1H-imidazol-5-yl)(6-(trifluoromethyl)pyridin-3-yl)methyl)quinolin-3-yl)oxy)benzonitrile], for which, in experiment [1], the IC50 is approximately 0.1 µM.

Regarding `Cn1cncc1C(O)(c1ccc(C(F)(F)F)nc1)c1ccc2nc(N3CCC3)c(Oc3ccc(C#N)cc3)c(Cl)c2c1` (single isomer, unassigned) [Example 31c, 4-((2-(Azetidin-1-yl)-4-chloro-6-(hydroxy(1-methyl-1H-imidazol-5-yl)(6-(trifluoromethyl)pyridin-3-yl)methyl)quinolin-3-yl)oxy)benzonitrile], it took 0.017 µM to reach half-maximal inhibition in experiment [1] (IC50).

Take `Cn1cncc1C(O)(c1ccc(C(F)(F)F)nc1)c1ccc2nc(C#N)c(Oc3ccccc3)c(Cl)c2c1` (stereo not shown) [Example 21, 4-Chloro-6-(hydroxy(1-methyl-1H-imidazol-5-yl)(6-(trifluoromethyl)pyridin-3-yl)methyl)-3-phenoxyquinoline-2-carbonitrile.TFA]: the inhibition at 6 µM at human RORγt LBD was 80%.

The molecule `Cn1cncc1C(O)(c1ccc(C(F)(F)F)nc1)c1ccc2nc(C#N)c(Oc3ccccc3)c(C#N)c2c1` (stereo not shown) [Example 22a, 6-(Hydroxy(1-methyl-1H-imidazol-5-yl)(6-(trifluoromethyl)pyridin-3-yl)methyl)-3-phenoxyquinoline-2,4-dicarbonitrile] returned an IC50 against human RORγt LBD (HEK293T cells, 24 hours compound treatment) of approximately 6 µM. At human RORγt LBD, the inhibition at 6 µM was found to be 55%.

In the case of `Cn1cncc1C(O)(c1ccc(Cl)cc1)c1ccc2nc(C#N)c(Oc3ccc(F)cc3)c(Cl)c2c1` (stereo not shown) [Example 23, 4-Chloro-6-((4-chlorophenyl)(hydroxy)(1-methyl-1H-imidazol-5-yl)methyl)-3-(4-fluorophenoxy)quinoline-2-carbonitrile.TFA], at human RORγt LBD, the inhibition at 6 µM was determined as 80%.

Consider `Cn1cncc1C(O)(c1ccc(C(F)(F)F)nc1)c1ccc2nc(C#N)c(Oc3ccc(Cl)cc3)c(C(F)(F)F)c2c1` (stereo not shown) [Example 24, 3-(4-Chlorophenoxy)-6-(hydroxy(1-methyl-1H-imidazol-5-yl)(6-(trifluoromethyl)pyridin-3-yl)methyl)-4-(trifluoromethyl)quinoline-2-carbonitrile], for which the inhibition at 6 µM on human RORγt LBD amounted to 55%.

As for `CCOc1nc2ccc(C(O)(c3ccc(C(F)(F)F)nc3)c3cncn3C)cc2c(C(F)(F)F)c1Oc1ccc(Cl)cc1` (stereo not shown) [Example 25a, (3-(4-Chlorophenoxy)-2-ethoxy-4-(trifluoromethyl)quinolin-6-yl)(1-methyl-1H-imidazol-5-yl)(6-(trifluoromethyl)pyridin-3-yl)methanol], the inhibition at 6 µM on human RORγt LBD is 75%.

As for `CCN(CC)c1nc2ccc(C(O)(c3ccc(Cl)cc3)c3cncn3C)cc2c(C(F)(F)F)c1Oc1ccccc1` (stereo not shown) [Example 29, (4-Chlorophenyl)(2-(diethylamino)-3-phenoxy-4-(trifluoromethyl)quinolin-6-yl)(1-methyl-1H-imidazol-5-yl)methanol.TFA], the inhibition at 6 µM on human RORγt LBD is 93%.

For the molecule `Cn1cncc1C(O)(c1ccc(Cl)cc1)c1ccc2nc(N3CCC3)c(Oc3ccc(C#N)cc3)c(Cl)c2c1` (stereo not shown) [Example 32a, 4-((2-(Azetidin-1-yl)-4-chloro-6-((4-chlorophenyl)(hydroxyl)(1-methyl-1H-imidazol-5-yl)methyl)quinolin-3-yl)oxy)benzonitrile], the inhibition at 6 µM at human RORγt LBD is 102%.

For the molecule `Cn1cncc1C(O)(c1ccc(C(F)(F)F)nc1)c1ccc2nc(N3CCCC3)c(Oc3ccc(C#N)cc3)c(Cl)c2c1` (stereo not shown) [Example 33, 4-((4-Chloro-6-(hydroxy(1-methyl-1H-imidazol-5-yl)(6-(trifluoromethyl)pyridin-3-yl)methyl)-2-(pyrrolidin-1-yl)quinolin-3-yl)oxy)benzonitrile], the IC50 in experiment [1] (Homo sapiens, CD4+ T, 72 h) came to 0.088 µM.

Take `COCCN(C)c1nc2ccc(C(O)(c3ccc(C(F)(F)F)nc3)c3cncn3C)cc2c(Cl)c1Oc1ccccc1` (stereo not shown) [Example 34, (4-Chloro-2-((2-methoxyethyl)(methyl)amino)-3-phenxoyquinolin-6-yl)(1-methyl-1H-imidazol-5-yl)(6-(trifluoromethyl)pyridin-3-yl)methanol.TFA]: on human RORγt LBD, the inhibition at 6 µM was 95%.

`CN(c1ccccc1)c1c(Cl)nc2ccc(C(O)(c3cccnc3)c3cccc(Cl)c3)cc2c1Cl` (stereo not shown) [Example 35, (3-Chlorophenyl)(2,4-dichloro-3-(methyl(phenyl)amino)quinolin-6-yl)(pyridin-3-yl)methanol] yielded an IC50 in experiment [1] (Homo sapiens, CD4+ T, 72 h) of approximately 1 µM.

Turning to `CCN(c1ccccc1)c1c(Cl)nc2ccc(C(O)(c3cccnc3)c3cccc(Cl)c3)cc2c1Cl` (stereo not shown) [Example 39, (3-Chlorophenyl)(2,4-dichloro-3-(ethyl(phenyl)amino)quinolin-6-yl)(pyridin-3-yl)methanol], the half-maximal inhibitory concentration (IC50) in experiment [1] (Homo sapiens, CD4+ T, 72 h) is more than 6 µM.

For the molecule `CCN(CC)c1nc2ccc(C(O)(c3ccc(Cl)cc3)c3cncn3C)cc2c(Cl)c1N(C(=O)OC(C)(C)C)c1ccccc1` (stereo not shown) [Example 44, tert-Butyl (4-chloro-6-((4-chlorophenyl)(hydroxyl)(1-methyl-1H-imidazol-5-yl)methyl)-2-(diethylamino)quinolin-3-yl)(phenyl)carbamate.TFA], the inhibition at 6 µM at human RORγt LBD was found to be 62%.

For `Cn1cncc1C(O)(c1ccc(C(F)(F)F)nc1)c1ccc2nc(Cl)c(Oc3ccc(Cl)cc3)c(C(F)(F)F)c2c1` (stereo not shown) [Example 46, (2-Chloro-3-(4-chlorophenoxy)-4-(trifluoromethyl)quinolin-6-yl)(1-methyl-1H-imidazol-5-yl)(6-(trifluoromethyl)pyridin-3-yl)methanol], the inhibition at 6 µM at human RORγt LBD worked out at 39%.
